The text below walks through data of article PMC11645656, “MRGPRX4 mediates phospho-drug associated pruritus in a humanized mouse model” (Science translational medicine, 2024).

The assay deals with T1, MRGPRX4 (S83) (Homo sapiens, UniProt Q96LA9, L83S).
T1 construct: expressed in transfected cells
The experiment in a line: EC50 determination, intracellular calcium mobilization in MRGPRX4 stably expressed HEK293 cells (FLIPR Calcium 5, Flexstation-3). Type of assay: cell-based. Further details: Fig. 1D dose-response, calcium mobilization response (individual replicate) / calcium mobilization response (Fig. 1D dose-response raw data): unit not given here. The settings on record: for calcium mobilization response (Fig. 1D dose-response raw data): individual replicate values; for EC50: read-out: EC50; for Hill coefficient: dose-response curve fitting. As to the method:
HEK293 cells and MRGPRX4 stably expressed HEK293 cells were seeded in 100 μl culture media on 96-well plates at a density of 40,000 cells per well and incubated overnight. The next day, the media were replaced with a dye-loading solution from the FLIPR Calcium 5 assay kit (Molecular Devices), diluted in Hank's Balanced Salt Solution (HBSS) with 20 mM HEPES, pH 7.4. After 1 h of incubation at 37°C, cells were allowed to recover for 10 min in the dark at room temperature prior to performing intracellular calcium mobilization assay in a Flexstation-3 instrument with SoftMax®Pro 7.1 software (Molecular Devices). Serial concentrations of tested drugs were prepared in HBSS/HEPES solution at 3X concentration. […] Compounds were tested in triplicates and the signals were averaged. Responses were determined by subtracting the minimum signal (at the baseline before adding the drug) from the maximum signal (obtained after drug stimulation). Four-parameter logistic (4PL) curve fit was used to plot the dose-response curves. […] Both dose-response curve fitting and EC50s calculation are computed with GraphPad Prism software (version: 6.o or above).
(Calcium flux is commonly read through the fluorescence of an indicator in the cells.)

[1] abbreviates: MRGPRX4 stably expressed HEK293 cells, calcium mobilization.

Values joined by “and” are separate entries in the source; they are usually repeats but may differ in a detail not shown here. Equal entries are not always repeated. Where two headings read alike, the source gives them in different places.

T1 sequence (Q96LA9 whole entry L83S): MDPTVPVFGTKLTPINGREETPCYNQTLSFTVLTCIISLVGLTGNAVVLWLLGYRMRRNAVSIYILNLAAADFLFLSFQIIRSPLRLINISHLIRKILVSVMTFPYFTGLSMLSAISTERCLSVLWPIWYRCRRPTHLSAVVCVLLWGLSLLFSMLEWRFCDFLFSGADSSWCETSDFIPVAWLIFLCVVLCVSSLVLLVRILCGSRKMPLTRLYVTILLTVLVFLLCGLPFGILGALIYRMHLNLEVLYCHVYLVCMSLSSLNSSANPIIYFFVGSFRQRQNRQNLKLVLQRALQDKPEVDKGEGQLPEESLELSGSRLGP

For the compound `C[C@@H]1C[C@H]2[C@@H]3C[C@@H](O)C4=CC(=O)C=C[C@]4(C)[C@@]3(F)[C@@H](O)C[C@]2(C)[C@@]1(O)C(=O)CO` [6b-hydroxy Dexamethasone], the “Fig. 1D dose-response, calcium mobilization response (individual replicate)” value (Concentration 9.76563e-7 M) is -11.185 and -2.950 and -9.064 and -1.271 and -4.466; the “Fig. 1D dose-response, calcium mobilization response (individual replicate)” value (Concentration 1.95313e-6 M) was -4.343 and -9.147 and -5.890 and -0.806 and -7.669; the “Fig. 1D dose-response, calcium mobilization response (individual replicate)” value (Concentration 3.90625e-6 M) was -10.884 and -6.013 and -8.580 and -8.133 and -5.676; the “Fig. 1D dose-response, calcium mobilization response (individual replicate)” value (Concentration 7.8125e-6 M) was -1.007 and -6.768 and -0.871 and -6.992 and -1.487; the “Fig. 1D dose-response, calcium mobilization response (individual replicate)” value (Concentration 1.5625e-5 M) was -3.580 and -12.887 and -7.336 and -12.885 and -3.031; the “Fig. 1D dose-response, calcium mobilization response (individual replicate)” value (Concentration 3.125e-5 M) is -6.945 and -4.243 and -10.704 and -6.397 and -13.033. In addition, the “Fig. 1D dose-response, calcium mobilization response (individual replicate)” value by setting is: (Concentration 6.25e-5 M) -3.167 and -3.420 and -21.978 and -8.518 and -4.898; (Concentration 0.00025 M) -19.291 and -10.466 and -0.309 and -10.053 and -7.780; (Concentration 0.0005 M) -6.623 and -13.594 and -13.062 and -8.352 and -18.691; (Concentration 0.001 M) -11.685 and -12.391 and -8.163 and -15.688 and -9.331.
For `CC[C@]1(c2ccccc2)NC(=O)N(C)C1=O` [(R)-mephenytoin], the “calcium mobilization response (Fig. 1D dose-response raw data)” value is, setting by setting: (concentration 4.88281e-7 M) -28.494 and -0.685 and -28.419 and -1.368 and -39.430 and -16.800 and -4.015 and -27.858 and -25.726; (concentration 9.76563e-7 M) -7.288 and -19.217 and -18.327 and -17.700 and -9.222 and -17.910 and -11.024 and -17.403 and -16.404; (concentration 1.95313e-6 M) -4.806 and -21.809 and -22.673 and -18.368 and -20.701 and -10.218 and -45.398 and -2.556 and -1.333; (concentration 3.90625e-6 M) -11.313 and -5.626 and -2.810 and -4.150 and -5.388 and -10.211 and -8.758 and -3.374 and -7.616; (concentration 7.8125e-6 M) -13.282 and -38.673 and -86.390 and -55.539 and -30.274 and -52.531 and -40.546 and -63.168 and -34.632; (concentration 1.5625e-5 M) -73.173 and -60.784 and -5.824 and -52.600 and -25.248 and -61.934 and -57.691 and -23.069 and -59.022. Also, the “calcium mobilization response (Fig. 1D dose-response raw data)” value runs as follows: (concentration 3.125e-5 M) -77.603 and -4.145 and -51.921 and -55.448 and -9.903 and -68.319 and -36.832 and -68.498 and -28.339; (concentration 6.25e-5 M) -22.173 and -48.350 and -3.409 and -11.978 and -30.555 and -31.399 and -12.734 and -38.906 and -22.292; (concentration 0.00025 M) -56.927 and -11.154 and -10.026 and -28.148 and -45.428 and -4.530 and -28.870 and -12.606 and -36.630; (concentration 0.0005 M) -44.336 and -37.065 and -31.962 and -46.134 and -28.961 and -38.269 and -19.967 and -86.384 and -7.013.
Regarding `CC[C@@]1(c2ccccc2)NC(=O)N(C)C1=O` [(S)-mephenytoin], the “calcium mobilization response (Fig. 1D dose-response raw data)” value is -20.370 and -28.895 and -20.737 and -16.113 and -11.794 and -17.288 and -8.111 and -30.820 and -18.667 (concentration 4.88281e-7 M); -14.910 and -10.110 and -14.446 and -15.834 and -19.023 and -15.341 and -3.659 and -28.710 and -12.463 (concentration 9.76563e-7 M); -18.478 and -17.267 and -18.784 and -17.855 and -11.934 and -14.257 and -17.051 and -23.967 and -8.270 (concentration 1.95313e-6 M); -5.757 and -11.730 and -8.574 and 8.283 and -10.074 and -11.646 and -8.442 and -1.458 and -9.849 (concentration 3.90625e-6 M); 26.923 and 9.795 and -10.857 and -10.275 and -14.955 and -11.140 and -1.065 and -2.234 and -1.955 (concentration 7.8125e-6 M); 9.387 and -3.753 and 17.104 and -13.591 and -6.859 and -9.499 and -1.610 and -1.506 and -0.489 (concentration 1.5625e-5 M). Moreover, the “calcium mobilization response (Fig. 1D dose-response raw data)” value is 7.318 and 16.609 and 24.858 and -11.449 and -15.821 and -20.419 and 0.176 and 0.206 and 0.166 (concentration 3.125e-5 M); 20.640 and 67.105 and 19.512 and -1.060 and 14.827 and -6.587 and 28.221 and 5.104 and 23.894 (concentration 6.25e-5 M); 56.723 and 43.018 and 21.772 and 14.354 and 43.622 and 16.555 and 1.733 and 79.374 and 16.915 (concentration 0.00025 M); -10.031 and 14.167 and 0.209 and 8.392 and 6.582 and -2.785 and 5.320 and 0.368 and 2.580 (concentration 0.0005 M).
In the case of `CNC[C@H](O)[C@@H](O)[C@H](O)[C@H](O)CO.CNC[C@H](O)[C@@H](O)[C@H](O)[C@H](O)CO.C[C@@H](O[C@H]1OCCN(Cc2nn(P(=O)(O)O)c(=O)[nH]2)[C@H]1c1ccc(F)cc1)c1cc(C(F)(F)F)cc(C(F)(F)F)c1` [Fosaprepitant dimeglumine], the 50% effective concentration (EC50) (as a rule, the midpoint of the concentration-response curve) under setting [1] was 7 µM. In addition, for the setting “table S1”, the Hill coefficient (commonly a measure of the steepness of the concentration-response curve) is 3.670.
Take `C[C@]12CCC(=O)C=C1CC[C@@H]1[C@@H]2[C@@H](O)C[C@@]2(C)[C@H]1CC[C@]2(O)C(=O)COC(=O)CCC(=O)O` [Hydrocortisone 21-hemisuccinate]: for the setting “table S1”, the concentration for a half-maximal effect (EC50) is greater than 500 µM.
As to `C[C@]12CCC(=O)C=C1CC[C@@H]1[C@@H]2[C@@H](O)C[C@@]2(C)[C@H]1CC[C@]2(O)C(=O)COP(=O)([O-])[O-].[Na+].[Na+]` [Hydrocortisone sodium phosphate], the EC50 under setting [1] stood at 0.328 µM. Further, where the note is “table S1”, the Hill coefficient was 1.411.
As for `O=C1NC(=O)C(c2ccccc2)(c2ccc(O)cc2)N1` (stereo not shown) [Hydroxyphenytoin], the “Fig. 1D dose-response, calcium mobilization response (individual replicate)” value was -13.997 and -18.908 and -71.107 and -31.060 (Concentration 9.76563e-7 M); -36.810 and -38.751 and -15.180 and -28.223 (Concentration 1.95313e-6 M); -53.775 and -34.726 and -87.092 and -4.044 (Concentration 3.90625e-6 M); -6.273 and -4.175 and -11.050 and -115.284 (Concentration 7.8125e-6 M); -23.391 and -58.915 and -49.315 and -20.542 (Concentration 1.5625e-5 M); -58.615 and -86.247 and -12.733 and -61.272 (Concentration 3.125e-5 M). Further, the “Fig. 1D dose-response, calcium mobilization response (individual replicate)” value runs as follows: (Concentration 6.25e-5 M) -83.462 and -33.574 and -53.783 and -75.169; (Concentration 0.00025 M) -7.298 and -62.458 and -53.853 and -44.871; (Concentration 0.0005 M) -68.434 and -44.648 and -66.219 and -35.443; (Concentration 0.001 M) -67.062 and -39.432 and -24.454 and -47.392. The “calcium mobilization response (Fig. 1D dose-response raw data)” value is -38.335 and -44.136 and -38.604 and -53.703 and -53.375 (concentration 4.88281e-7 M); -21.881 and -18.856 and -41.417 and -3.943 and -41.401 (concentration 9.76563e-7 M); -33.904 and -36.161 and -55.798 and -55.451 and -16.637 (concentration 1.95313e-6 M); -41.290 and -41.879 and -47.340 and -95.401 and -28.834 (concentration 3.90625e-6 M); -43.390 and -45.131 and -40.251 and -36.055 and -69.327 (concentration 7.8125e-6 M); -49.874 and -56.147 and -54.231 and -13.701 and -87.936 (concentration 1.5625e-5 M). The “calcium mobilization response (Fig. 1D dose-response raw data)” value (concentration 3.125e-5 M) is -55.112 and -52.780 and -54.634 and -28.441 and -50.624; the “calcium mobilization response (Fig. 1D dose-response raw data)” value (concentration 6.25e-5 M) is -46.992 and -52.460 and -54.562 and -23.886 and -26.540; the “calcium mobilization response (Fig. 1D dose-response raw data)” value (concentration 0.00025 M) is -50.524 and -46.583 and -49.203 and -70.603 and -7.273; the “calcium mobilization response (Fig. 1D dose-response raw data)” value (concentration 0.0005 M) is -43.005 and -35.783 and -32.491 and -3.926 and -40.291.
